These results are taken from article PMC12067093, “Discovery and optimisation of a covalent ligand for TRIM25 and its application to targeted protein ubiquitination” (Chemical Science, 2025).

One test addresses T1, E1 (His6-UBA1) (Mus musculus, UniProt Q02053).
T1 construct: made in house
T1 sequence (Q02053 1-1058): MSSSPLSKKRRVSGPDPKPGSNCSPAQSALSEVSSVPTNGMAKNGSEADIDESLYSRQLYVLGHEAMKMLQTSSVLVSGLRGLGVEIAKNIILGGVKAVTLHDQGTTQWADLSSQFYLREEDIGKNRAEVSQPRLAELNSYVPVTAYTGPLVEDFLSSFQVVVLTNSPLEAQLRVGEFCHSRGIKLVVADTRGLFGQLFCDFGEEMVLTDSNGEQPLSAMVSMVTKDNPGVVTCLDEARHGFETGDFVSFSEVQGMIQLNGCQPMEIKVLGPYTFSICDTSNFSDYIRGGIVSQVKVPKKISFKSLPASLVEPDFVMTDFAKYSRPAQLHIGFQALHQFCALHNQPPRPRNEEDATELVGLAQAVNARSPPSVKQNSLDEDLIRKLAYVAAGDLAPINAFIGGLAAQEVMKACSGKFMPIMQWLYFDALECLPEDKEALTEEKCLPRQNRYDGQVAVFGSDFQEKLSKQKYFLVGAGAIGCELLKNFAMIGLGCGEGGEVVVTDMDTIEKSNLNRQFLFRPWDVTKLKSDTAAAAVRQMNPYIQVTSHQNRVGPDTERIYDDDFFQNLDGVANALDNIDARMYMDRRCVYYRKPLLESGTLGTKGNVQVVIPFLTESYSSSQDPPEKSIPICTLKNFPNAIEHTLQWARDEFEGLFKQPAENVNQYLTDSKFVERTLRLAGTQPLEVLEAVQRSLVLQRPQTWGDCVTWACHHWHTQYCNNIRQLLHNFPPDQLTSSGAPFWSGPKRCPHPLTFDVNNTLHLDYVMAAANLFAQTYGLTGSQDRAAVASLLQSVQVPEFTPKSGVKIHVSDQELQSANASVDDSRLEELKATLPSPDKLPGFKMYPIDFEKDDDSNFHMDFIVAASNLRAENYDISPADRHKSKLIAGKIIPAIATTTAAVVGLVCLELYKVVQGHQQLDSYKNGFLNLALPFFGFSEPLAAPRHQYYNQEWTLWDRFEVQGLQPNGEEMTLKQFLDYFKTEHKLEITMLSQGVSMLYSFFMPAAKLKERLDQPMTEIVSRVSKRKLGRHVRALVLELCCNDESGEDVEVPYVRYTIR
Kind of test: E1~Ub loading assay. The class given is biochemical. As to conditions: E1 2 μM pre-treated with compound 100 μM for 30 min at RT; reducing and non-reducing conditions. The protocol:
2 Supplementary Figure 6 Further biochemical characterisation of purified
4 A) Schematic of auto-ubiquitination assay, with pre-labelled full-length TRIM25. Created in
5 BioRender. McPhie, K. (2025) https://BioRender.com/q86g447; B) Auto-ubiquitination time
7 µM) was incubated with compounds (50 µM) or DMSO (1%) for 16 h at 4 °C, before addition
8 of E1 (0.2 µM), UBCH5B (2 µM), Ub (50 µM), UbATTO (1 µM). The assay was initiated by the
9 addition of ATP, and performed for 60 min at 30 °C. Time point 0 was taken before the addition
10 of ATP. Samples were analysed by SDS-PAGE, with Coomassie staining and scanning at 700
11 nm wavelength (for ATTO emission).
12 of His10-TRIM25 (which has not been ubiquitinated) where % His10-TRIM25 (relative to time =
13 0 min) is plotted vs reaction time. Data are presented as n = 1; D) E1~Ub loading assay with
E1 (2 µM) was incubated with
15 compounds (100 µM) or DMSO (1%) for 30 min at RT, before addition of UBCH5B (2 µM) and
16 Ub (10 µM). The assay was initiated by the addition of ATP (1 mM), and performed for 5 min
17 at 30 °C. After 5 min, samples were treated with either loading dye, or loading dye with DTT,
18 and analysed by SDS-PAGE, with Coomassie staining; E) Cellular target identification for 11
19 (50 µM, left, and 10 µM, right, 4 h incubation at 37 °C in live THP-1 cells) using an […]

Another test deals with live THP-1 cells. Kind of test: IA-DTB competitive chemoproteomics in live THP-1 cells, proteome-wide off-targets. The format is cell-based, 9606. As to conditions: compound 50 μM, 4 h at 37 °C.

Turning to `Cc1cc(C(=O)N2CCCN(C(=O)CCl)CC2)ccc1-c1ccccc1` [Compound 10], the “E1~Ub loading” value on E1 (His6-UBA1) is “not inhibited”. Also, in the test on live THP-1 cells, the “number of other protein targets competed” value amounted to 50.

In the case of `CC1Cc2ccccc2N1C(=O)C1CCCN(C(=O)CCl)C1` (stereo not drawn) [Compound 11], at E1 (His6-UBA1), the “E1~Ub loading” value is given as “not inhibited”.
